Experimental findings from patent US7576094B2, “Spiro derivatives as lipoxygenase inhibitors” (Eli Lilly and Company, priority 2004, dated 2009) are described below.

The test system of the assay is dopaminergic neuronal cell line. The assay can be described thus: High Glutamate-Induced Oxidative Stress Assay (HGOS). It is filed as cell-based. The conditions noted are these: Mus musculus; 30 mM glutamate, 16 h, Cell Tracker Green; read-out: protection against HGOS cell injury and cell death with an EC50. The text has this:
Protection against redox stress can be evaluated in cell culture using high glutamate induced oxidative stress (HGOS) in mouse dopaminergic cell lines. The cytotoxic effect of glutamate is not due to excitotoxicity, as this cell line is devoid of inotropic glutamate receptors. Rather, the glutamate-induced toxicity of dopaminergic cells is associated with an inhibition of cystne transport which subsequently leads to depletion of intracellular glutathione (GSH) levels (Murphy T. H., et al. Neuron, Vol. 2 (1989), pp. 1547-1558), activation of neuronal 12-Lipoxygenase (Li, Y. et al. Neuron, Vol. 19 (1997), pp. 453-463), increased ROS production (Tan S. et al. J. Cell Biol., Vol. 141 (1998), pp. 1423-1432) and elevated intracellular Ca^2+ (Li, Y. et al. see supra). Some molecules were measured for their ability to protect cells against glutamate-induced stress and the assay is detailed in Examples.
This procedure was used to induce high glutamate-induced oxidative stress (HGOS) in a dopaminergic neuronal cell line. Using this assay the potency and efficacy of test articles against HGOS neuronal cell injury and cell death was established in a high throughput manner.
• Dopaminergic neuronal cell lines • DMEM-No Glucose (Life Technologies Cat # 11966-025) • L-glutamine (Life Technologies Cat # 25030-081) • L-glutamic acid, monosodium salt (Sigma Cat # G5889) • D-glucose (Sigma Cat # G-6151) • 10×HBSS buffer(pH 7.4) (950 mL Pyrogen-free water, 2.44 g/L MgCl2.6H20, 3.73 g/L KCl, 59.58 g/L Hepes, 58.44 g/L NaCI, 1.36 g/L KH2PO4, 1.91 g/L CaCl2.2H2O and pH to […] with HCl) • Cell Tracker Green fluorescent dye (Molecular Probes, Cat # 2925). Prepare a 5 μM solution in pre-warmed HBSS just prior to use. • Sterile 96-well plates pre-coated with poly-D-lysine (Corning Catalog # 3665) • 96-well deep well mother plate, DyNA Block 1000 (VWR Catalog # 40002-008) Neuronal Cells
The cells were seeded into 96-well plates at a density of 2000 per well and left to grow for 72 hours in a 33° C. incubator with 5% CO2 in air atmosphere. […]
For the compound `Cc1c(C)c2c(c(C)c1O)CCC1(CC1)O2` [5,7,8-trimethyl-3,4-dihydrospiro[chromene-2,1′-cyclopropan]-6-ol], the EC50 (in general, the concentration that produces a half-maximal response) was less than 1 µM.

Consider `Cc1c(C)c2c(c(Cl)c1O)CCC1(CCC1)O2` [5-chloro-7,8-dimethyl-3,4-dihydrospiro[chromene-2,1′-cyclobutan]-6-ol], for which the EC50 is less than 1 µM.

Turning to `Cc1c(C)c2c(c(C)c1O)C1(CCC1)CCS2` [5′,7′,8′-trimethyl-2′,3′-dihydrospiro[cyclobutane, 1,4′-thiochromen]-6′-ol], the EC50 was less than 1 µM.
